Assay results from publication PMC8177814 (Molecular pharmaceutics, 2020).
Like-named read-outs stand apart in the source and are kept apart here. Blank lines part the entries; values can stand above or below the molecule they belong to.

How the values were obtained:
BCRP (ABCG2) [1] = biological target: T1, BCRP (ABCG2) (Homo sapiens, UniProt Q9UNQ0); conditions: 30 min
T1 sequence (Q9UNQ0 1-655): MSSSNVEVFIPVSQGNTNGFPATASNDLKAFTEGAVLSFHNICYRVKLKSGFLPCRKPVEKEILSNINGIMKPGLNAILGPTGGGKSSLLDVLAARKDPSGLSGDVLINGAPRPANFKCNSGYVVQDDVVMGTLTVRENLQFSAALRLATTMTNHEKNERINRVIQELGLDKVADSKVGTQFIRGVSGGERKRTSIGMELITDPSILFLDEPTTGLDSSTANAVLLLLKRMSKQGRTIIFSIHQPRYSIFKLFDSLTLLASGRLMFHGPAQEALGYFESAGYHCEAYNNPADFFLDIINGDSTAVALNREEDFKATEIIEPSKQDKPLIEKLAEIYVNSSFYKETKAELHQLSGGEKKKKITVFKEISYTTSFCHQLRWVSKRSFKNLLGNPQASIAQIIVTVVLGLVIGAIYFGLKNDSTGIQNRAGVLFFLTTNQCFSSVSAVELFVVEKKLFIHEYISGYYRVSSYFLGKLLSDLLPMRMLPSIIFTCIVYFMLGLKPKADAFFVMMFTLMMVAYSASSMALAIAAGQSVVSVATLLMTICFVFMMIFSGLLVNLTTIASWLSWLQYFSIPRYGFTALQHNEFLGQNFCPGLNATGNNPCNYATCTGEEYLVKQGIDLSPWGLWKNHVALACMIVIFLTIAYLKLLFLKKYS

human BCRP [2] = biological target: T2, human BCRP (Homo sapiens, UniProt Q9UNQ0); test: BCRP vesicular transport assay
T2 sequence (Q9UNQ0 1-655): T1 sequence (Q9UNQ0 1-655)

BCRP = conditions: previous study; cited from earlier work
human BCRP [3] = biological target: T2, human BCRP
BCRP (ABCG2) [4] = biological target: T1, BCRP (ABCG2); test: 3H-oxypurinol accumulation assay in BCRP-overexpressing HEK293 cells; conditions: excipients at concentrations similar to vesicle screen; 30 min

Molecule: CCCCC(CC)COC(=O)CC(C(=O)OCC(CC)CCCC)S(=O)(=O)O (stereo not shown) [Docusate sodium]
increase of BCRP-mediated 3H-oxypurinol accumulation in BCRP-overexpressing HEK293 cells (BCRP (ABCG2) [1]): 26.4%

Molecule: O=C1OC(c2ccc(O)c(S(=O)(=O)O)c2)(c2ccc(O)c(S(=O)(=O)O)c2)c2c(Br)c(Br)c(Br)c(Br)c21 [bromosulfophthalein, reference compound]
3H-CCK8 uptake in human BCRP membrane vesicles (human BCRP [2]; 5 mM ATP and 200 μM BSP, 37 °C, 5 min (ATP alone 1.88, AMP 0.58)): 0.44 pmol/mg/min

Molecule: D&C Brown No. 1
increase of BCRP-mediated 3H-oxypurinol accumulation in BCRP-overexpressing HEK293 cells (BCRP (ABCG2) [4]): 26.8%

Further lines, with some results ahead:

inhibition of BCRP-mediated 3H-CCK8 uptake in vesicles (in words) (human BCRP [2]; screening concentration, inhibitor = more than 50% inhibition): inhibited
Molecule: CCN(Cc1cccc(S(=O)(=O)[O-])c1)c1ccc(C(=C2C=CC(=[N+](CC)Cc3cccc(S(=O)(=O)[O-])c3)C=C2)c2ccccc2S(=O)(=O)[O-])cc1.[Na+].[Na+] [FD&C Blue No. 1]
inhibition of BCRP-mediated Lucifer yellow uptake in vesicle assays (BCRP): did not inhibit

increase of BCRP-mediated 3H-oxypurinol accumulation in BCRP-overexpressing HEK293 cells (BCRP (ABCG2) [1]): more than 50%
Molecule: CCN(CC)c1ccc2c(-c3ccccc3C(=O)O)c3ccc(=[N+](CC)CC)cc-3oc2c1 [Rhodamine B]

(EV + I)/(EV – I), nonspecific effect on cell membranes (BCRP (ABCG2) [1]; 100 μM): 0.571 | normalized oxypurinol accumulation ((BCRP + I)/(BCRP – I))/((EV + I)/(EV – I)) (BCRP (ABCG2) [1]; 100 μM): 3.7
Molecule: COc1cc(/C=C/C(=O)CC(=O)/C=C/c2ccc(O)c(OC)c2)ccc1O [curcumin, reference compound]

inhibition of BCRP-mediated 3H-CCK8 uptake in vesicles (in words) (human BCRP [3]): did not inhibit
Molecule: COc1ccc(CCC(=O)c2c(O)cc(O[C@@H]3O[C@H](CO)[C@@H](O)[C@H](O)[C@H]3O[C@@H]3O[C@@H](C)[C@H](O)[C@@H](O)[C@H]3O)cc2O)cc1O [neohesperidin DC]
inhibition of BCRP-mediated Lucifer yellow uptake in vesicle assays (BCRP): did inhibit
